In ChEMBL document CHEMBL3124875, “A facile access to novel steroidal 17-2'-(1',3',4')-oxadiazoles, and an evaluation of their cytotoxic activities in vitro” (Bioorg Med Chem Lett, 2014):

Assays:
[1] = system: A-431; experiment: Cytotoxicity against human A431 cells at 30 uM after 72 hrs by MTT assay; assay type: functional; details: A-431, 72 h
[2] = system: A-431; experiment: Cytotoxicity against human A431 cells at 10 uM after 72 hrs by MTT assay; assay type: functional; details: A-431, 72 h
[3] = system: MCF7; experiment: Cytotoxicity against human MCF7 cells at 10 uM after 72 hrs by MTT assay; assay type: functional; details: MCF7, 72 h
[4] = system: MCF7; experiment: Cytotoxicity against human MCF7 cells at 30 uM after 72 hrs by MTT assay; assay type: functional; details: MCF7, 72 h
[5] = system: A2780; experiment: Cytotoxicity against human A2780 cells at 30 uM after 72 hrs by MTT assay; assay type: functional; details: A2780, 72 h
[6] = system: A2780; experiment: Cytotoxicity against human A2780 cells at 10 uM after 72 hrs by MTT assay; assay type: functional; details: A2780, 72 h
[7] = system: HeLa; experiment: Cytotoxicity against human HeLa cells at 10 uM after 72 hrs by MTT assay; assay type: functional
[8] = system: HeLa; experiment: Cytotoxicity against human HeLa cells at 30 uM after 72 hrs by MTT assay; assay type: functional
[9] = system: A2780; experiment: Cytotoxicity against human A2780 cells after 72 hrs by MTT assay; assay type: functional, cell-based; details: A2780, 72 h
[10] = system: HeLa; experiment: Cytotoxicity against human HeLa cells after 72 hrs by MTT assay; assay type: functional, cell-based
[11] = system: A-431; experiment: Cytotoxicity against human A431 cells after 72 hrs by MTT assay; assay type: functional, cell-based; details: A-431, 72 h
[12] = system: MCF7; experiment: Cytotoxicity against human MCF7 cells after 72 hrs by MTT assay; assay type: functional, cell-based; details: MCF7, 72 h

SMILES | inhibition at 30 µM [1] [%] | inhibition at 10 µM [2] [%] | inhibition at 10 µM [3] [%] | inhibition at 30 µM [4] [%] | inhibition at 30 µM [5] [%] | inhibition at 10 µM [6] [%] | inhibition at 10 µM [7] [%] | inhibition at 30 µM [8] [%] | IC50 [9] [µM] | IC50 [10] [µM] | IC50 [11] [µM] | IC50 [12] [µM]
CC(=O)O[C@H]1CC[C@@]2(C)C(=CC[C@H]3[C@@H]4CC[C@H](c5nnc(-c6ccco6)o5)[C@@]4(C)CC[C@@H]32)C1 | 25.9 | < 20 | 26.1 | 45.3 | 43.5 | 24.1 | 27.5 | 48.2 |  |  |  | 
CC(=O)O[C@H]1CC[C@@]2(C)C(=CC[C@H]3[C@@H]4CC[C@H](/C=N/NC(=O)c5cccnc5)[C@@]4(C)CC[C@@H]32)C1 | 37 | 37.1 | < 20 | 28.7 | 84.3 | 27.8 | 65.8 | 88 | 16.5 | 6.44 |  | 
C[C@]12CC[C@H]3[C@@H](CC=C4C[C@@H](O)CC[C@@]43C)[C@@H]1CC[C@@H]2c1nnc(-c2ccco2)o1 | 69.2 | 66.6 | 42 | 46.6 | 37 | 37.5 | 74.9 | 77.5 |  | 1.56 | 1.82 | 
CC(=O)O[C@H]1CC[C@@]2(C)C(=CC[C@H]3[C@@H]4CC[C@H](c5nnc(-c6ccccc6)o5)[C@@]4(C)CC[C@@H]32)C1 | 59.1 | < 20 | 22.6 | 41.5 | 52 | < 20 | < 20 | 57.4 | 28.8 | 29.4 | 25.4 | 
C[C@]12CC[C@H]3[C@@H](CC=C4C[C@@H](O)CC[C@@]43C)[C@@H]1CC[C@@H]2/C=N/NC(=O)c1ccccc1 | 38.1 | < 20 | < 20 | 48 | 60.9 | 32.6 | 72.2 | 90.4 | 20.3 | 4.68 |  | 
C[C@]12CC[C@H]3[C@@H](CC=C4C[C@@H](O)CC[C@@]43C)[C@@H]1CC[C@@H]2/C=N/NC(=O)c1ccco1 | 26.1 | 24.9 | 21.1 | 53.2 | 46.4 | 21.1 | 78 | 91.2 |  | 5.57 |  | 28.2
CC(=O)O[C@H]1CC[C@@]2(C)C(=CC[C@H]3[C@@H]4CC[C@H]([C@H]5OC(c6ccccc6)=NN5C(C)=O)[C@@]4(C)CC[C@@H]32)C1 | 41.7 | 22.7 | < 20 | 26.7 | 53.5 | 20.2 | < 20 | 71.3 | 27.3 | 21.5 |  | 
CC(=O)O[C@H]1CC[C@@]2(C)C(=CC[C@H]3[C@@H]4CC[C@H](/C=N/NC(=O)c5ccco5)[C@@]4(C)CC[C@@H]32)C1 | 40.4 | 39 | 26.7 | 55.1 | 70.5 | 26.2 | 77.8 | 91.2 | 11.3 | 6.95 |  | 11.9
C[C@]12CC[C@H]3[C@@H](CC=C4C[C@@H](O)CC[C@@]43C)[C@@H]1CC[C@@H]2c1nnc(-c2ccccc2)o1 | 69.9 | 68 | 31.6 | 35.3 | 38.7 | 29.2 | 77.4 | 80.7 |  | 1.69 | 1.91 | 
C[C@]12CC[C@H]3[C@@H](CC=C4C[C@@H](O)CC[C@@]43C)[C@@H]1CC[C@@H]2/C=N/NC(=O)c1cccnc1 | 71.8 | 40.1 | < 20 | 82.9 | 66.4 | 23.5 | 80.5 | 90.9 | 11.3 | 5.54 | 12.8 | 18.9
CC(=O)O[C@H]1CC[C@@]2(C)C(=CC[C@H]3[C@@H]4CC[C@H](c5nnc(-c6cccnc6)o5)[C@@]4(C)CC[C@@H]32)C1 | 60.8 | < 20 | 21.8 | 55.7 | 48.2 | 22.8 | 22.5 | 65.8 |  | 20.8 | 23.6 | 26.1
CC(=O)O[C@H]1CC[C@@]2(C)C(=CC[C@H]3[C@@H]4CC[C@H]([C@@H]5OC(c6ccccc6)=NN5C(C)=O)[C@@]4(C)CC[C@@H]32)C1 | 30.6 | < 20 | < 20 | < 20 | 40.3 | < 20 | < 20 | 23 |  |  |  | 
CC(=O)O[C@H]1CC[C@@]2(C)C(=CC[C@H]3[C@@H]4CC[C@H](/C=N/NC(=O)c5ccccc5)[C@@]4(C)CC[C@@H]32)C1 | 45.5 | 45.1 | < 20 | 44.4 | 89.2 | 44.3 | 71.2 | 90.2 | 11.4 | 5.04 |  | 
C[C@]12CC[C@H]3[C@@H](CC=C4C[C@@H](O)CC[C@@]43C)[C@@H]1CC[C@@H]2c1nnc(-c2cccnc2)o1 | 65.4 | 60.3 | 41.6 | 45.5 | 33.3 | 31.9 | 71.7 | 74.2 |  | 4.83 | 6.76 | 
